Common to all, as to format: cell-based
Assay [1] has as its system HTT mRNA. In words: Splicing RT-qPCR assay (THP), Table 2A. As to conditions: Table 2A (THP); for AC50: AJ mRNA increase, read-out: HTT AJ (increase in alternative junction mRNA, AC50); for IC50: CJ mRNA decrease, read-out: HTT CJ (decrease in canonical junction mRNA, IC50). (Quantitative PCR measures a nucleic acid by following its amplification.)
The test system of assay [2] is MYB mRNA. Kind of assay: Splicing RT-qPCR assay (THP), Table 2A. The note with it: Table 2A (THP); for AC50: AJ mRNA increase, read-out: MYB AJ (increase in alternative junction mRNA, AC50); for IC50: CJ mRNA decrease, read-out: MYB CJ (decrease in canonical junction mRNA, IC50).
Assay [3] deals with HTT mRNA. Kind of assay: Gene panel canonical junction qPCR assay, decrease in CJ mRNA, Table 3. As to conditions: decrease in canonical junction (CJ) mRNA, gene panel qPCR, Table 3. The method in brief:
(§1)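 A673 (DMEM, 10% FBS, 15,000 cells/well) or K562 (IMDM, 10% FBS) cells treated 24 h at 37 °C with 11-point 3-fold dilutions, top 10 uM, DMSO ≤0.25%. Canonical exon-exon junction mRNA measured by RT-qPCR, normalized to GAPDH, GUSB or PPIA and DMSO (ΔΔCt); IC50 from 4-parameter logistic fit.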

Assay [4] concerns MYB mRNA. The description is as above. As to conditions: decrease in canonical junction (CJ) mRNA, gene panel qPCR, Table 3. Put shortly:
as §1

In assay [5] the test system is SMN2 mRNA. The assay is described as above. The note with it: decrease in canonical junction (CJ) mRNA, gene panel qPCR, Table 3. The method in brief:
as §1

Assay [6] concerns SH-SY5Y (human neuroblastoma) cells. Kind of assay: Cell viability, Cell Titer Glo 2.0 assay. As to conditions: read-out: Viability SHSY5Y.3 GI50. Put shortly: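 Toxicity screen in SH-SY5Y cells. Compounds were serially diluted in DMSO and then in medium, giving 0.1% DMSO final. Viability was read with CellTiter-Glo 2.0 after 72 h at 37 °C, 5% CO2, against medium-only blank wells.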
A general note: In ATP-based viability assays light output follows the ATP content of the culture.

Each structure is given as a SMILES string. Structures can show the parent of a compound that is named as a salt.

What is called AC50 is the midpoint of the concentration-response curve, whichever way the signal moves. A word on the IC50: it is the concentration that gives 50% inhibition. By GI50 is commonly meant the concentration that inhibits growth by half. Turning to `Cc1cn2cc(NC(=O)c3ccc(N4CCC(NC5CC5C)CC4)c4cn(C)nc34)cc(F)c2n1` (stereo not shown) [Compound 204, N-(8-fluoro-2-methyl-imidazo[1,2-a]pyridin-6-yl)-2-methyl-4-[4-[(2-methyl-cyclopropyl)amino]-1-piperidyl] indazole-7-carboxamide], the values for the AC50 in assay [1] and in assay [2] were 0.1 to 1 µM and under 0.1 µM, respectively. In addition, the IC50 was 0.1 to 1 µM in assay [1]; under 0.1 µM in assay [2]; 0.1 to 1 µM in assay [3]; under 0.1 µM in assay [4]; under 0.1 µM in assay [5]. Further, in assay [6], the GI50 fell in the range of 0.1 to 1 µM.
Turning to `Cc1cn2cc(NC(=O)c3ccc(N4CCC(NC5CC5(C)C)CC4)c4cn(C)nc34)cc(F)c2n1` (stereo not shown) [Compound 205, 4-(4-((2,2-dimethylcyclopropyl)amino)piperidin-1-yl)-N-(8-fluoro-2-methylimidazo[1,2-a]pyridin-6-yl)-2-methyl-2H-indazole-7-carboxamide], the results for the AC50 in assay [1] and in assay [2] were 0.1 to 1 µM and under 0.1 µM, respectively. Besides, the half-maximal inhibitory concentration (IC50) in assay [1] is 0.1 to 1 µM; in assay [2], under 0.1 µM; in assay [3], 1 to 10 µM; in assay [4], under 0.1 µM; in assay [5], under 0.1 µM. The GI50 in assay [6] fell in the range of 0.1 to 1 µM.
Consider `CCNC1CCN(c2ccc(C(=O)Nc3cn4cc(C)nc4c(OC)n3)c3nn(C)cc23)CC1` [Compound 206, 4-[4-(ethylamino)-1-piperidyl]-N-(8-methoxy-2-methyl-imidazo[1,2-a]pyrazin-6-yl)-2-methyl-indazole-7-carboxamide], for which the AC50 in assay [1] is 0.1 to 1 µM; in assay [2], under 0.1 µM. Also, the IC50 is 0.1 to 1 µM in assay [1]; under 0.1 µM in assay [2]; 0.1 to 1 µM in assay [3]; under 0.1 µM in assay [4]; under 0.1 µM in assay [5]. Besides, the GI50 in assay [6] was 0.1 to 1 µM.
Consider `COc1c(NC(=O)c2c(F)cc(N3CCC(NC4CC4)CC3)c3cn(C)nc23)cn2cc(C)nc2c1F` [Compound 207, 4-[4-(cyclopropylamino)-1-piperidyl]-6-fluoro-N-(8-fluoro-7-methoxy-2-methyl-imidazo[1,2-a]pyridin-6-yl)-2-methyl-indazole-7-carboxamide], for which the AC50 in assay [1] and in assay [2] was under 0.1 µM in each case. Also, the IC50 in assay [1], in assay [2], in assay [3], in assay [4] and in assay [5] was under 0.1 µM throughout. In addition, the GI50 in assay [6] is under 0.1 µM.
On to `COc1nc2c(C(=O)Nc3cc(F)c4nc(C)cn4c3)ccc(N3CCC(N)CC3)c2s1` [Compound 208, 7-(4-aminopiperidin-1-yl)-N-(8-fluoro-2-methylimidazo[1,2-a]pyridin-6-yl)-2-methoxybenzo[d]thiazole-4-carboxamide], for which the AC50 in assay [1] was 0.1 to 1 µM; in assay [2], under 0.1 µM. The IC50 is under 0.1 µM in assay [1]; under 0.1 µM in assay [2]; 0.1 to 1 µM in assay [3]; under 0.1 µM in assay [4]; under 0.1 µM in assay [5]. The GI50 in assay [6] was under 0.1 µM.
Take `Cc1cn2cc(NC(=O)c3ccc(N4CCC(NC5CC5)CC4)c4cc(C)nn34)cc(F)c2n1` [Compound 209, 4-[4-(cyclopropylamino)-1-piperidyl]-N-(8-fluoro-2-methyl-imidazo[1,2-a]pyridin-6-yl)-2-methyl-pyrazolo[1,5-a]pyridine-7-carboxamide]: the AC50 in assay [1] is 0.1 to 1 µM; in assay [2], under 0.1 µM. Besides, the IC50 in assay [1] was 0.1 to 1 µM; in assay [2], under 0.1 µM; in assay [3] it was 0.1 to 1 µM; in assay [4], under 0.1 µM; in assay [5] it was under 0.1 µM. Further, the GI50 in assay [6] is under 0.1 µM.
On to `Cc1cn2cc(NC(=O)c3ccc(N4CCC(NC5CC5)CC4)n4cc(C)nc34)cc(F)c2n1` [Compound 210, 5-(4-(cyclopropylamino)piperidin-1-yl)-N-(8-fluoro-2-methylimidazo[1,2-a]pyridin-6-yl)-2-methylimidazo[1,2-a]-pyridine-8-carboxamide], for which the values for the AC50 in assay [1] and in assay [2] were 0.1 to 1 µM and under 0.1 µM, respectively. Moreover, the IC50 in assay [1] is under 0.1 µM; in assay [2], under 0.1 µM; in assay [3], 0.1 to 1 µM; in assay [4], under 0.1 µM; in assay [5], under 0.1 µM. Further, the GI50 in assay [6] is under 0.1 µM.
For the molecule `Cc1cn2cc(NC(=O)c3ccc(N4C[C@@H](C)N[C@@H](C)C4)c4[nH]cnc34)cc(F)c2n1` [Compound 220, 7-[(3R,5S)-3,5-dimethylpiperazin-1-yl]-N-(8-fluoro-2-methyl-imidazo[1,2-a]pyridin-6-yl)-1H-1,3-benzodiazole-4-carboxamide], the results for the AC50 in assay [1] and in assay [2] were 1 to 10 µM and 0.1 to 1 µM, respectively. The IC50 was over 10 µM in assay [1]; 0.1 to 1 µM in assay [2]; 1 to 10 µM in assay [3]; 0.1 to 1 µM in assay [4]; 0.1 to 1 µM in assay [5]. The GI50 in assay [6] was in the range of 1 to 10 µM.
With `Cc1cn2cc(NC(=O)c3ccc(N4C[C@H](C)N[C@@H](C)C4)c4[nH]cnc34)cc(F)c2n1` [Compound 221, 7-[(3S,5S)-3,5-dimethylpiperazin-1-yl]-N-(8-fluoro-2-methylimidazo[1,2-a]pyridin-6-yl)-1H-1,3-benzodiazole-4-carboxamide], the AC50 in assay [1] is 1 to 10 µM; in assay [2], 0.1 to 1 µM. The IC50 in assay [1] is 1 to 10 µM; in assay [2] it was 0.1 to 1 µM; in assay [3] it was over 10 µM; in assay [4], 0.1 to 1 µM; in assay [5], under 0.1 µM. In assay [6], the GI50 fell in the range of 1 to 10 µM.
For the molecule `Cc1cn2cc(NC(=O)c3ccc(N4C[C@@H](C)N[C@@H](C)C4)c4[nH]c(C)nc34)cc(F)c2n1` [Compound 225, 7-[(3R,5S)-3,5-dimethylpiperazin-1-yl]-N-(8-fluoro-2-methylimidazo[1,2-a]pyridin-6-yl)-2-methyl-1H-1,3-benzodiazole-4-carboxamide], the values for the AC50 in assay [1] and in assay [2] were over 10 µM and 1 to 10 µM, respectively. Further, the IC50 in assay [1] lay in the range of 1 to 10 µM; in assay [2] it was 0.1 to 1 µM; in assay [3] it was 1 to 10 µM; in assay [4], 1 to 10 µM; in assay [5] it was 0.1 to 1 µM. Further, the GI50 in assay [6] fell in the range of 1 to 10 µM.
In the case of `Cc1cn2nc(C(=O)Nc3ccc(N4C[C@@H](C)N[C@@H](C)C4)c4cc[nH]c34)cc(C)c2n1` [Compound 237, N-(4-[(3R,5S)-3,5-dimethylpiperazin-1-yl]-1H-indol-7-yl)-2,8-dimethylimidazo[1,2-b]pyridazine-6-carboxamide], the AC50 in assay [1] and in assay [2] was 1 to 10 µM throughout. For the same molecule, the IC50 in assay [1], in assay [2], in assay [3], in assay [4] and in assay [5] was 1 to 10 µM in each case. Also, the concentration for 50% growth inhibition (GI50) in assay [6] is 1 to 10 µM.
`Cc1cn2cc(NC(=O)c3ccc(N4C[C@H](C)N[C@@H](C)C4)c4[nH]nnc34)cc(F)c2n1` [Compound 242, 7-[(3S,5S)-3,5-dimethylpiperazin-1-yl]-N-(8-fluoro-2-methyl-imidazo[1,2-a]pyridin-6-yl)-1H-benzotriazole-4-carboxamide]: the AC50 in assay [1] and in assay [2] was over 10 µM throughout. For the same molecule, the IC50 in assay [1] was over 10 µM; in assay [2] it was over 10 µM; in assay [3], over 10 µM; in assay [4] it was over 10 µM; in assay [5] it was 1 to 10 µM. The GI50 in assay [6] was over 10 µM.
Consider `Cc1cn2cc(NC(=O)c3ccc(N4C[C@@H](C)N[C@@H](C)C4)c4[nH]nnc34)cc(F)c2n1` [Compound 243, 7-((3S,5R)-3,5-dimethylpiperazin-1-yl)-N-(8-fluoro-2-methylimidazo[1,2-a]pyridin-6-yl)-1H-benzo[d][1,2,3]-triazole-4-carboxamide hydrochloride], for which the AC50 in assay [1] and in assay [2] was over 10 µM in each case. The IC50 in assay [1] was over 10 µM; in assay [2], over 10 µM; in assay [3], over 10 µM; in assay [4], over 10 µM; in assay [5] it was 1 to 10 µM. Besides, the 50% growth inhibitory concentration (GI50) in assay [6] was over 10 µM.
For `Cc1cn2cc(NC(=O)c3c(F)cc(N4CCNCC4)c4occc34)cc(F)c2n1` [Compound 247, 5-fluoro-N-(8-fluoro-2-methylimidazo-[1,2-a]pyridin-6-yl)-7-piperazin-1-yl-benzofuran-4-carboxamide], the AC50 in assay [1] and in assay [2] was over 10 µM throughout. For the same molecule, the IC50 in assay [1] is over 10 µM; in assay [2] it was over 10 µM; in assay [3], over 10 µM; in assay [4], over 10 µM; in assay [5], 1 to 10 µM. The GI50 in assay [6] is 1 to 10 µM.

The values above are taken from US20260285853A1, “COMPOUNDS AND METHODS FOR MODULATING SPLICING” (REMIX THERAPEUTICS INC., priority 2023, published 2026).
